Experiment [1] has as its target BW25113 ribosome extract, ribosomal binding site of Api137. Description: Fluorescence polarization competition against cf-Api137 (Ki). Further details: species or system Escherichia coli. The settings on record: unlabeled PrAMP against cf-labeled Api137, calculated from IC50, 95% confidence interval in brackets. As to the method: (§1) E. coli BW25113 and E. coli Rosetta pLysS were cultivated in LB medium and harvested at an OD600 of ~4 by centrifugation (5000× g, 30 min, 4 °C). The cell pellets were washed by resuspension in ribosome preparation buffer (20 mmol/L Hepes-KOH, 6 mmol/L MgCl2, 30 mmol/L NH4Cl, pH 7.6, 4°C) and subsequent centrifugation (5000× g, 30 min, 4 °C). Cell pellets were suspended in ribosome preparation buffer ([…]) containing freshly added 2-mercapotethanol (4 mmol/L). Lysozyme was added to the resuspended cells and incubated on ice for 30 min. The cell suspension was disrupted six times using a FastPrep-24^TM 5G instrument (MP Biomedicals, Solon, OH, USA) with BigPrep 50 mL setting (40 s, 4.0 m/s), incubated with DNase I (5 mL/L) on ice for one hour and centrifuged (16,000× g, 30 min, 4 °C). The cell debris was removed from the supernatant by centrifugation (32,000× g, 60 min, 4 °C), and the supernatant was centrifuged again (165,000× g, 17 h, 4 °C). The pellet was resuspended in ribosome preparation buffer (0.1 mL per g cell pellet) to obtain the 70S ribosome extract and stored at −80 °C. The ribosome concentration was estimated by recording the absorbance at 260 nm (1 AU for a ribosome concentration of 28 nmol/L). The molecular weight of the 70S E. coli ribosome was assumed to be 2.3 MDa.
(§2) Ki was determined for ribosome extracts using cf-labeled and unlabeled peptides in ribosome preparation buffer. Black 384-well plates were prepared as described above. Unlabeled peptides or antibiotics (20 µL, 656 µmol/L) were added and 2-fold serially diluted in 23 wells in ribosome preparation buffer. A ribosome solution was prepared by adjusting the ribosome concentration to ~90% of the upper Kd plateau obtained for the cf-labeled peptide to be studied and added to each well (10 µL). […] The fluorescence polarization was measured on a PARADIGMTM microplate reader in the top read position (λexc = 485 nm, λem = 535 nm) in triplicate on at least two different days. […] Inhibition constants, Ki, were calculated as described by Mathias and Jung.

Experiment [2] deals with BW25113 ribosome extract, ribosomal binding site of Onc112. The experiment can be described thus: Fluorescence polarization competition against cf-Onc112 (Ki). The arrangement: species or system Escherichia coli. The settings on record: unlabeled PrAMP against cf-labeled Onc112, calculated from IC50, 95% confidence interval in brackets. As for the experimental part: as §1, §2

In experiment [3] the test system is E. coli BL21 (DE3) sbmA::Tn10^Cm. The format is cell-based, Escherichia coli. As for the experimental part:
The minimal inhibitory concentrations (MIC) were determined at least twice in triplicate using a liquid broth microdilution assay in sterile 96-well plates and a total volume of 100 μL per well. Aqueous peptide solutions were serially 2-fold diluted in 25% MHBII or 33% TSB medium in a volume of 50 µL. An overnight culture was diluted in 25% MHBII or 33% TSB medium to 1.5 × 10^7 CFU/mL, and an aliquot of 50 μL was added to each well. The final cell count in each well was 7.5 × 10^6 CFU/mL. The plates were incubated at 37 °C for 20 ± 2 h. The turbidity of each well was measured at a wavelength of 600 nm. The MIC was defined as the lowest peptide concentration where the turbidity was identical to medium only.
E. coli strain BL21(DE3) was randomly mutagenized by Tn10 insertion using the lambda phage lysate λNK1324 carrying a chloramphenicol resistance and grown on LB agar plates in the presence of chloramphenicol (15 µg/mL) at 30 °C overnight. The resistant colonies were transferred to 25% MHBII agar plates containing Api137 (32 or 64 µg/mL) and incubated again at 37 °C overnight. Genomic DNA was isolated by a Monarch® Genomic DNA purification kit (New England Biolabs, Frankfurt am Main, Germany) from the presumed double-resistant strains, and the sequences flanking the transposon insertion were determined by arbitrary primed PCR using arbitrary primer ARB6 and Tn10 transposon-specific primer IS10-R complementary to the IS10 element of Tn10 transposon. The first round of amplification included six cycles of denaturation (95 °C, 30 s), annealing (30 °C, 30 s), and extension (72 °C, 90 s), followed by 30 cycles of denaturation (95 °C, 30 s), annealing (45°C, 30 s), and extension (72 °C, 2 min), as well as a final extension (72 °C, 6 min). The second round of amplification used arbitrary primer ARB2 and primer IS10-R. The PCR consisted of 30 cycles of denaturation (95 °C, 30 s), annealing (52 °C, 30 s), and extension (72 °C, 2 min), followed by a final extension step (72 °C, 6 min). PCR products were purified with the NucleoSpin® Gel and a PCR cleanup kit (Macherey-Nagel, Düren, Germany) and sequenced using primer IS10-R (Eurofins MWG Operon, Ebersberg, Germany), and the corresponding protein was identified in a sequence database (UniProt and NCBI, 2021).

Values after ≈ are worked out from the molar mass of the structure shown. Peptide text beside a SMILES is read from it. * marks the point of attachment. Orn(α-tetramethylguanidino) = CN(C)C(=N[C@@H](CCCN)C(=O)*)N(C)C

The term Ki denotes a measure of affinity in units of concentration, obtained from inhibition or displacement. Take `CC[C@H](C)[C@H](NC(=O)[C@H](Cc1ccc(O)cc1)NC(=O)[C@@H](NC(=O)[C@@H]1CCCN1C(=O)[C@H](CCCNC(=N)N)NC(=O)[C@H](CC(N)=O)NC(=O)[C@H](CC(N)=O)NC(=O)[C@H](CCCN)N=C(N(C)C)N(C)C)C(C)C)C(=O)N1CCC[C@H]1C(=O)N[C@@H](CCCNC(=N)N)C(=O)N1CCC[C@H]1C(=O)N[C@@H](CCCNC(=N)N)C(=O)N1CCC[C@H]1C(=O)N1CCC[C@H]1C(=O)N[C@@H](Cc1c[nH]cn1)C(=O)N1CCC[C@H]1C(=O)N[C@@H](CCCNC(=N)N)C(=O)N[C@@H](CC(C)C)C(=O)O` [Api137] ({Orn(α-tetramethylguanidino)}-NNRPVYIPRPRPPHPRL-OH): the inhibition constant Ki was 2 nM in experiment [1] and 219 nM in experiment [2]. The “MIC, 25% MHBII” value in experiment [3] (BL21 (DE3) sbmA::Tn10^Cm, 25% MHBII containing IPTG (0.1 mmol/L)) is 16 µg/mL (≈ 6.98 µM). In addition, the “MIC, 33% TSB” value in experiment [3] (BL21 (DE3) sbmA::Tn10^Cm, 33% TSB containing IPTG (0.1 mmol/L)) turned out to be 16 µg/mL (≈ 6.98 µM).
As for `CC[C@H](C)[C@H](NC(=O)[C@@H]1CCCN1C(=O)[C@H](CCCNC(=N)N)NC(=O)[C@H](CC(N)=O)NC(=O)[C@H](CC(N)=O)NC(=O)CN)C(=O)N[C@@H](Cc1ccc(O)cc1)C(=O)N[C@H](C(=O)N1CCC[C@H]1C(=O)N[C@@H](CCCNC(=N)N)C(=O)N1CCC[C@H]1C(=O)N[C@@H](CCCNC(=N)N)C(=O)N1CCC[C@H]1C(=O)N1CCC[C@H]1C(=O)N[C@@H](Cc1c[nH]cn1)C(=O)N1CCC[C@H]1C(=O)N[C@@H](CCCNC(=N)N)C(=O)N1CCC[C@H]1C(=O)N[C@H](C(=O)N[C@@H](CCCNC(=N)N)C(=O)N[C@H](C(=O)O)C(C)C)[C@@H](C)CC)[C@@H](C)CC` [Api805] (H-GNNRPIYIPRPRPPHPRPIRV-OH; N-terminus assumed), the inhibition constant Ki was 1070 nM in experiment [1] and 489 nM in experiment [2]. In addition, in experiment [3] (medium not stated (Table 3: 25% MHBII and 33% TSB)), the “MIC in the E. coli BL21 sbmA::Tn10^Cm strain” value was 128 µg/mL.
